Counter-ions that a name gives are not always drawn.

The subject of experiment [1] is complement system. As to conditions: literature report; cited from earlier work.
Experiment [2] has as its system hereditary angioneurotic edema. The conditions noted are these: literature report; cited from earlier work.
For experiment [3], the system named is activated human C1. Kind of experiment: Test, Code 026 (C1 inhibitor). As to conditions: activity in wells, two-fold serial dilution assay; higher well number indicates higher activity. Format: biochemical. The text has this: (§1) An active inhibitor protects C2 C1 and C4; (ii) Test, Code 035 (C3-C9 inhibitor) -- This test determines the ability of thee late components of human complement (C3-C9) to lyse EAC 142 in the presence of appropriate dilutions of the test compound. An active inhibitor protects EAC 142 from lysis by human C3-C9; (iii) Test, Code 036 (C-Shunt inhibitor) -- In this test human erythrocytes rendered fragile are lysed in autologous serum via the shunt pathway activated by cobra venom factor in the present of appropriate dilutions of the test compound. Inhibition of the shunt pathway results in failure of lysis; (iv) Forssman Vasculitis Test -- Here, the well known complement dependent lesion, Forssman vasculitis, is produced in guinea pigs by intradermal injection of rabbit anti-Forssman antiserum. […]

The subject of experiment [4] is shunt pathway. Kind of experiment: Test, Code 036 (C-Shunt inhibitor), lysis of human erythrocytes in autologous serum via shunt pathway activated by cobra venom factor. Format: cell-based. The conditions noted are these: activity in wells, two-fold serial dilution assay; higher well number indicates higher activity.
Source text: as §1

In experiment [5] the test system is whole complement. Kind of experiment: Complement Level Reduction Test (serum of dosed guinea pigs, capillary tube assay). Format: in vivo. The conditions noted are these: 200 mg/kg i.p.
The subject of experiment [6] is human serum complement. As to conditions: in vitro and in vivo, judged by reduction in total hemolytic complement activity; cited from earlier work.

As for heparin, the “anticomplementary effect / complement inhibition” value in experiment [1] is given as “anticomplementary effect”.

As for `Cc1ccc(C(=O)Nc2ccc(S(=O)(=O)O)c3cc(S(=O)(=O)O)cc(S(=O)(=O)O)c23)cc1NC(=O)c1cccc(NC(=O)Nc2cccc(C(=O)Nc3cc(C(=O)Nc4ccc(S(=O)(=O)O)c5cc(S(=O)(=O)O)cc(S(=O)(=O)O)c45)ccc3C)c2)c1` [Suramin], the “anticomplementary effect / complement inhibition” value in experiment [1] is “competitive inhibitor of the complement system”. In addition, the “treatment of hereditary angioneurotic edema” value (“treatment” for short) in experiment [2] is on record as “used with success”. On to `O=C(O)c1cc(NS(=O)(=O)c2cc(S(=O)(=O)O)cc(S(=O)(=O)Nc3cc(C(=O)O)cc(C(=O)O)c3)c2)cc(C(=O)O)c1` [5,5'[5-Sulfo-m-phenylenebis(sulfonylimino)]diisophathalic acid sodium salt, compound with ethanol (1:1)], for which, in experiment [3], the “C1 026 Wells” value is recorded as “+4 Wells”. In addition, the “Shunt Inhibition 036 Wells” value in experiment [4] is reported as “+1 Wells”. In experiment [5] (30 min), the “In Vivo Activity (Guinea Pig) % Inhibition, Intraperitoneal, 30 minutes” value was -44%. In addition, the “In Vivo Activity (Guinea Pig) % Inhibition, Intraperitoneal, 60 minutes” value in experiment [5] (60 min) is listed as -42%. In addition, in experiment [5] (120 min), the “In Vivo Activity (Guinea Pig) % Inhibition, Intraperitoneal, 120 minutes” value is reported as -49%. As to pentosan-poly-sulfoester, the “anticomplementary activity on human serum” value in experiment [6] is “anticomplementary activity on human serum both in vitro and in vivo”. Turning to `Nc1ccc2cc(S(=O)(=O)O)cc(O)c2c1N=Nc1ccc(NC(=O)Nc2ccc(N=Nc3c(N)ccc4cc(S(=O)(=O)O)cc(O)c34)c(S(=O)(=O)O)c2)cc1S(=O)(=O)O` [chlorazol fast pink, 3,3'-ureylenebis-[6-(2-amino-8-hydroxy-6-sulfo-1-naphthylazo)]benzenesulfonic acid, tetrasodium salt], the “anticomplementary effect / complement inhibition” value in experiment [1] is “anticomplementary effect”. Turning to `NC[C@H]1CC[C@H](C(=O)O)CC1` [tranexamic acid], the “treatment” value in experiment [2] is “used with success”. For `NCCCCCC(=O)O` [epsilon-aminocaproic acid], the “treatment” value in experiment [2] is “used with success”.

The values are drawn from US4120894A, “Sulfo-m-phenylenebis(sulfonylimino)diisophthalic acid salts” (American Cyanamid Company, priority 1977, dated 1978).
